As a reminder, the Km is the substrate concentration at which the rate is half of its maximum.

One experiment relates to islet cells. Description: In vitro islet cell glucose transport assay (2-NBDG uptake). The experiment is classed as cell-based, mouse. Conditions: for Km: Lineweaver-Burke plot, 5 min incubation. The protocol:
Mouse islet cells were obtained as described (Josefsen et al., J. Endocrinology 14: 145-154, 1996). Briefly, the pancreatic duct was ligated distally and injected with 3 mg/ml collagenase (Sigma), 5 μg/ml DNase (Sigma) and 5.6 mM glucose in Hank's balanced salt solution (HBSS)). The pancreas was removed and incubated for 14 min at 37° C. with shaking (200 strokes/min). The suspension was passed through a 16 gauge needle, centrifuged and suspended in the bottom layer of a discontinuous Ficoll gradient (11%, 20%, 23%, and 25%). After 15 min of centrifugation at 800× gravity at room temperature, cells were recovered from the interfaces and washed in HBSS, followed by hand selection of the islet-enriched interface under a stereomicroscope. Islets were gently dispersed after three consecutive washes with HBSS, then exposed to 0.5 U/ml of dispase (Calbiochem) in HBSS for 3 min. This was followed by gentle repetitive pipeting and a final wash with HBSS. The cells were cultured in RPMI-1640 medium containing 10% FCS, 2 mM L-glutamine, 0.1 mM 2-mercaptoethanol, and 11 mM glucose.
Glucose transport into islet cells was measured using 2-[N-(7-nitrobenz-2-oxa-1,3-diazol-4-yl)amino]-2-deoxy-D-glucose (2-NBDG, Molecular Probes) as described (Yamada et al., J. Biol. Chem. 275: 22278-22283, 2000) Islet cells were incubated in glucose free-KRBH for 20 min at 37° C., and then with various concentrations of 2-NBDG. To measure the time course of 2-NBDG transport, islet cells were incubated with 500 μM of 2-NBDG in KRBH in the presence or absence of 10 mM D-glucose for the indicated times (FIG. 2K), then washed three times with glucose free-KRBH, and intracellular fluorescence (excitation 485-495 nm, emission 515-525 nm) was measured using a VersaFluor Fluorometer System (Bio-Rad, Hercules, Calif.). Concentration dependence was determined in same conditions except that cells were incubated with 100 μM, 200 μM, 400 μM, 800 μM, 1.6 mM, 3.2 mM, or 6.4 mM of 2-NBDG for 5 min.

Experiment [1] is described as follows: Arginine tolerance test (serum insulin after L-arginine injection). Type of experiment: in vivo. Conditions: wild-type and GnT-4a deficient mice, fasted 16 hr, i.p. 3 g/Kg. On the procedure: Mice were fasted for 16 hr followed by intraperitoneal (i.p.) glucose injection (1.5 g/Kg body weight). Blood samples were obtained at 0, 30, 60, 120, and 240 min after the injection and measurements of glucose and insulin was determined, the latter using a rat insulin ELISA assay with a mouse insulin standard (Crystal Chem., Chicago, Ill.). In testing insulin tolerance, mice were injected i.p. with 2 U/kg body weight human insulin (Carbiochem, La Jolla, Calif.) followed by blood collection at 0, 30, 60 120, and 240 min after injection, and serum glucose levels were analyzed. In arginine tolerance tests, mice were fasted overnight for 16 hr followed by i.p. injection (3 g/Kg body weight) of L-arginine (Sigma, St. Louis, Mo.). Blood samples were analyzed at 0, 2, 5, 15, and 30 min after the injection.

For the compound `O=[N+]([O-])c1ccc(N[C@H]2C(O)O[C@H](CO)[C@@H](O)[C@@H]2O)c2nonc12` (stereo partly drawn) [2-NBDG, 2-[N-(7-nitrobenz-2-oxa-1,3-diazol-4-yl)amino]-2-deoxy-D-glucose], the Km is 9.1 mM in the experiment on islet cells (Mgat4a null islet cells) and 9.53 mM in the experiment with islet cells (wild-type islet cells). Further, the entries for the “Vmax of 2-NBDG uptake” value in the experiment with islet cells (Mgat4a null islets) and in the experiment on islet cells (wild-type islets) were 1.86 nmol/5 min/0.5×10^5 cells and 16.95 nmol/5 min/0.5×10^5 cells, respectively.

Turning to `N=C(N)NCCC[C@H](N)C(=O)O` [L-arginine], the “Serum insulin concentrations after L-arginine treatment” value in experiment [1] is “robust increases in serum insulin concentrations”.

Source of the values: patent US8034556B2, “Regulation of glucose and insulin levels by GnT-4 glycosyltransferase activity” (The Regents of the University of California, priority 2004, dated 2011).
